Tests used:
Format in all cases: cell-based, mouse
[1] = test system: cultured murine hippocampal neurons; test: evoked EPSCs and tetanus-induced potentiation in cultured neurons; conditions: for effect on EPSC amplitude (in words): evoked EPSCs, FIG. 2B
[2] = test system: cultured hippocampal neurons from double transgenic mAPP/mPS1 mice; test: basal mEPSC frequency (spontaneous neurotransmitter release), whole cell patch clamp, mAPP/mPS1 cultures
[3] = test system: cultured hippocampal neurons from WT mice; test: basal mEPSC frequency (spontaneous neurotransmitter release), whole cell patch clamp, WT cultures
[4] = test system: cultured hippocampal neurons from double transgenic mAPP/mPS1 mice; test: glutamate-induced enhancement of mEPSC frequency (synaptic plasticity), mAPP/mPS1 cultures
[5] = test system: cultured hippocampal neurons from WT mice; test: glutamate-induced increase of mEPSC frequency, WT cultures
[6] = test system: cultured hippocampal neurons from WT mice; test: FM 1-43 vesicle cycling: number of active presynaptic boutons, WT cultures
Excerpt: Cationic styrylpyridinium dye FM 1-43 has become an established tool for identifying actively firing neurons and for investigating the mechanisms of activity-dependent vesicle cycling in widely different species. These water soluble dyes, which are non-toxic to cells virtually nonfluorescent in aqueous medium, become internalized within recycled synaptic vesicles and the nerve terminals become brightly stained. The amount of FM 1-43 taken up per vesicle by endocytosis equals the amount of dye released upon exocytosis.
One of the methods to induce exocytosis/endocytosis in the neuronal culture is by perfusion of the hyperkalemic solution. […] The perfusion solution is then changed back to normal bath solution for 10 minutes to wash off the dye from the external medium. ADVASEP-7 (1 mM, CyDex, Inc., Overland Park, Kans.), an anionic cyclodextrin complexing agent is introduced for 60 seconds in the washing bath solution at 1 and 6 minutes of washing for enhanced removal of the dye from the external medium (FIG. 6A). After 10 min wash period, which is sufficient for the complete recycling and repriming of the dye-stained population of synaptic vesicles, an image was then taken to record the loading of FM 1-43 in the synaptic boutons. The culture is then exposed to multiple 15 seconds application of hyperkalemic bath solution (without FM 1-43) to evoke repeated cycles of exocytosis, which facilitate release of the dye from the vesicles. An image is taken after 30 minutes of repeated cycles of exocytosis and washing with normal bath solution. The difference between the images before and after multiple exposures to hyperkalemic solution gives the measure of FM 1-43 stained vesicles.
To study glutamate-induced presynaptic plasticity changes, the culture is exposed to glutamate (200 μM) in Mg^2+ free bath solution for 30 seconds and then washed out in approximately 1 minute. After 30 minutes of glutamate exposure, the staining and destaining procedure is repeated. NMDA receptor antagonist, d-AP5 (40 μM) and non-NMDA receptor antagonist, CNQX (20 μM) are included in the hyperkalemic solution to block possible recurrent excitation and induction of activity-dependent plasticity. All images were acquired using Nikon D-Eclipse C1 confocal microscope. Cultures were viewed with 60×/1.2 nA water immersion objective. An investigator blinded to experimental conditions obtained quantitative data using NIH Image (v. 1.61). For each image, the intensity of individual puncta and total number of puncta was assessed. FIG. 6B illustrates exemplary cycling vesicles before and after glutamate exposure in cell cultures from wild type (WT) and mAPP/mPS1 littermates. A brief application of glutamate produces enhancement of cycling vesicles in WT but not mAPP/mPS1 cell cultures (FIG. 6C).
Another finding on cell cultures from transgenic mouse models of Alzheimer's disease is represented by the increase in basal number of functional presynaptic release sites as well as the lack of the glutamate-induced increase in number of functional presynaptic release sites. These tests were performed using FM 1-43. Therefore, we also tested whether these phenomena occurred in non transgenic cultures following exposure to exogenous oligomeric Aβ. […] Brief application (˜30 sec) of 200 μM glutamate in Mg^2+ free medium caused a significant increase in number of active boutons in cultures from vehicle-treated WT animals (269.70±33.12%, n=6, p<0.001, one way ANOVA) ) (FIG. 12B). […]

[7] = test system: cultured hippocampal neurons from WT mice; test: immunocytochemistry: synapsin I- and synaptophysin-immunoreactive puncta, WT cultures
Experimental: Glutamate in Mg^2+-free bath solution, or normal bath solution (control) was added directly to the culture dish and washed out after approximately 1 min by exchanging the solution with phosphate-buffered saline (PBS), (pH 7.4) 2 times. The cultures were fixed starting approximately 30 min after the application of glutamate, or control solution. The cultures were incubated overnight with affinity-purified rabbit anti-synapsin I (Molecular Probes) diluted 1:200. The secondary antibody was goat anti-rabbit labeled with Rhodamin Red diluted 1:500 in 4% goat serum in PBS. Cells were mounted in Vectashield (Vector Labs) and examined by confocal microscope (Nikon D-Eclipse C1). The cells were excited using the 568 nm lines of a krypton-argon laser to image Cy3. Kalman averages of 4 scans were collected for each image. Ten neurons in each culture dish were selected at random and analyzed by an observer who was blind to the experimental treatment. Fields with roughly equal densities of neurites were chosen for analysis. Synapsin I clusters in a representative field (94×142 μm) around the neuron were quantified using a computer program NIH Image (v. 1.61). Individual clusters were identified based on having a fluorescence intensity that exceeded a threshold set above background and a diameter between 0.5 and 5 μm. For all measures, the mean result from the 10 neurons in the dish was normalized to the mean from control dishes in the same culture batch because variability between different culture batches was greater than between dishes in the same batch. FIG. 7 illustrates the effects of glutamate on the number of synapsin I-immunoreactive clusters in WT and mAPP/mPS1 cell cultures. Synapsin I-immunoreactive clusters are more numerous in glutamate-exposed than control cell WT cultures (FIGS. 7A, 7B).
In light of the microstructural changes involving synapsin I and synaptophysin in cultures from transgenic animals, we also tested whether these changes could be induced by the exogenous application of Aβ. […] We next tested whether the number of synapsin I- and synaptophysin-immunoreactive puncta was increased after glutamate application in Aβ-treated cultures. […] These findings indicate that Aβ can produce coordinate changes in the distribution and/or expression of presynaptic proteins.
Aβ preparation: Oligomeric Aβ42 was prepared as previously described (Stine et al., 2003). Briefly, the lyophilized peptide (American Peptide) was re-suspended in 100% 1,1,1,3,3,3-hexafluoro-2-propanol (HFIP; Sigma). The solution was aliquoted and the HFIP was allowed to evaporate in the fume hood. The resulting clear peptide films were dried under vacuum in a SpeedVac and stored at −20° C. Twenty-four hours prior to use, the aliquots were added dimethylsulfoxide (DMSO) (Sigma) and sonicated for 10 minutes. Oligomeric Aβ42 was obtained by diluting Aβ42-DMSO into cell culture media, vortexed for 30 seconds and incubated at 4° C. for 24 hours until the use. To induce plasticity 200 μM glutamate in a Mg^2+-free solution was added for ˜30 sec.

[8] = Aβ42-treated cultures fixed 30 minutes after 200 μM glutamate application
[9] = WT cultures, 200 pM oligomeric Aβ42 for 24 hours vs vehicle-treated

## N[C@@H](CCCP(=O)(O)O)C(=O)O [APV]
[1]; 100 Hz tetani, extracellular application, FIG. 2C
  effect on potentiation of EPSC by high frequency stimulation (in words): blocked
[1]
  effect on EPSC amplitude (in words): reduces the amplitude of the EPSCs

## N#Cc1cc2[nH]c(=O)c(=O)[nH]c2cc1[N+](=O)[O-] [CNQX]
[1]
  effect on EPSC amplitude (in words): blocks the remaining part of the EPSC

## CC(C)C[C@H](NC(=O)[C@H]1O[C@@H]1C(=O)O)C(=O)NCCCCN=C(N)N [E64]
[2]; mAPP/mPS1 cultures treated with E64 1 μM added daily to culture medium
  basal mEPSC frequency: 435 events/minute
[2]; mAPP/mPS1 cultures, E64 for 3 to 4 days, FIG. 4
  effect on basal mEPSC frequency (in words): re-established normal mEPSC frequency
[3]; WT cultures treated with E64 1 μM added daily
  basal mEPSC frequency: 332 events/minute
[4]; mAPP/mPS1 cultures treated with E64, 45 minutes after application of glutamate, n=6
  mEPSC frequency after glutamate (synaptic plasticity): 346.44±41%
[4]; mAPP/mPS1 cultures, glutamate-induced mEPSC enhancement, FIG. 5
  effect on synaptic plasticity (in words): re-established normal synaptic plasticity

## oligomeric Aβ42: lyophilized β-amyloid 42 peptide (American Peptide) treated with HFIP and DMSO, then diluted into culture media to form oligomers
[3]; FIG. 11A
  effect on basal frequency of spontaneous release of neurotransmitter (in words): increases
[3]; WT cultures, 200 pM oligomeric Aβ42 for 24 hours
  mEPSC amplitude vs vehicle-treated cultures (in words): did not find any difference
[3]; WT cultures, 200 pM oligomeric Aβ42 for 24 hours, n=8
  basal frequency of spontaneous release of neurotransmitter: 671.46 ± 48.28 min⁻¹
[5]; FIG. 11B
  effect on glutamate-induced mEPSC frequency increase (in words): blocks
[5]; WT cultures, 200 pM Aβ42 for 24 hours, 45 min after 200 μM glutamate, n=10
  mEPSC frequency after glutamate: 104.43±3.05 % of pre values
[5]; WT cultures, Aβ-treated, vehicle instead of glutamate, n=8
  basal mEPSC frequency with vehicle added instead of glutamate: 112.00±11.34 % of pre values
[5]; cultures treated with Aβ
  mEPSC amplitude after glutamate treatment (in words): did not produce any change
[6]; Aβ-treated cultures
  mean fluorescence intensity of the labeled boutons (in words): did not find any change
[6]; Aβ-treated cultures, ~30 sec 200 μM glutamate in Mg2+ free medium, n=8
  number of active boutons after glutamate: 86.80±4.6 % increase
[6]; FIG. 12A
  effect on basal number of active presynaptic boutons (in words): increases
[6]; FIG. 12B
  effect on glutamate-induced increase in the number of active boutons (in words): blocks
[6]; WT cultures treated for 24 hrs with Aβ42, n=15
  basal number of active boutons: 38.15±3.6 boutons/unit length of neurite
[7]; [8]
  number of synapsin I-immunoreactive puncta after glutamate: 111.55±8.97%
  number of synaptophysin-immunoreactive puncta after glutamate: 115.48±5.76%
[7]; FIG. 13A
  effect on basal number of synapsin I- and synaptophysin-immunoreactive puncta (in words): increases
[7]; FIG. 13B
  effect on glutamate-induced increase in synapsin I- and synaptophysin-immunoreactive puncta (in words): blocks
[7]; [9]
  basal number of synapsin I immunoreactive puncta: 1155.53±6.78 % of control
  basal number of synaptophysin immunoreactive puncta: 146.13±6.15%
